# Laboratory results as given in US11433052B2, “5-LOX and COX-2 inhibition for treatment in connection with blood-brain barrier dysfunction” (University of Kentucky Research Foundation, priority 2019, dated 2022).
# Experiments:
# MMP = MMP activity in isolated capillaries exposed to glutamate; format: cell-based, rat; conditions: 100 μM glutamate with 100 μM LCF
# Experimental: (§1) With reference to FIGS. 1A-1C, the effect of dual LOX-COX inhibition on glutamate-mediated capillary leakage was tested. Isolated rat brain capillaries were exposed to 100 μM glutamate with or without 100 μM of the dual LOX/COX inhibitor, licofelone (LCF). […] FIG. 1B is a bar graph illustrating MMP activity assessed in isolated capillaries exposed to 100 μM glutamate with or without LCF.
# S100β = assay: Serum S100β ELISA in SE rats; format: in vivo, rat; conditions: 7 injections, 2 d after SE-induction with pilocarpine
# Experimental: With reference to FIGS. 2A and 2B, the effect of dual LOX-COX inhibition on seizure-mediated capillary leakage was tested. Rats were treated with 10 mg/kg LCF (i.p., 7 injections). Capillaries were isolated 2 d after status epilepticus (SE)-induction with pilocarpine. Serum levels of S100β were assessed by ELISA (Millipore). Statistics: ***p<0.001 (ANOVA). Data: mean±SEM. […] The effect of dual LOX-COX inhibition on seizure-mediated capillary leakage was further tested in rates treated with either 5 mg/kg or 10 mg/kg LCF (i.p., 7 injections). Capillaries were isolated 2 d after SE-induction with pilocarpine. Serum levels of S100β were assessed by ELISA (Millipore). […] With reference to FIGS. 4A and 4B, the effect of a combination of a LOX inhibitor and a COX inhibitor on seizure-mediated capillary leakage was tested. Rats were treated with zileuton (ZLT) and celecoxib (CEL) (5 mg/kg and 10 mg/kg; i.p., 7 injections). Capillaries were isolated 2 d after SE-induction with pilocarpine. Serum levels of S100β were assessed by ELISA (Millipore). Statistics: ***p<0.001 (ANOVA). Data: mean±SEM.
# MMP-2 = assay: Western blot of MMP-2 protein expression in capillaries exposed to glutamate; format: cell-based; conditions: isolated rat brain capillaries, 100 μM glutamate with 100 μM LCF
# Experimental: as §1, with “1A includes Western blots showing MMP-2 and MMP-9 protein expression” for “1B is a bar graph illustrating MMP activity assessed”, “isolated rat brain” for “isolated”, “LCF. β-Actin was used as protein loading control.” for “LCF.”
# MMP-9 = assay: Western blot of MMP-9 protein expression in capillaries exposed to glutamate; format: cell-based; conditions: isolated rat brain capillaries, 100 μM glutamate with 100 μM LCF
# Experimental: as §1, with “1A includes Western blots showing MMP-2 and MMP-9 protein expression” for “1B is a bar graph illustrating MMP activity assessed”, “isolated rat brain” for “isolated”, “LCF. β-Actin was used as protein loading control.” for “LCF.”
# [1] = system: brain capillaries from pilocarpine-induced status epilepticus (SE) rats; assay: Texas Red leakage from capillary lumens, seizure-mediated capillary leakage in SE rats; format: in vivo, rat; conditions: 10 mg/kg LCF i.p., 7 injections; capillaries isolated 2 d after SE-induction with pilocarpine
# Experimental: With reference to FIGS. 2A and 2B, the effect of dual LOX-COX inhibition on seizure-mediated capillary leakage was tested. Rats were treated with 10 mg/kg LCF (i.p., 7 injections). Capillaries were isolated 2 d after status epilepticus (SE)-induction with pilocarpine. Texas Red (TR) leakage from capillary lumens was monitored by confocal microscopy. Mannitol served as a positive control for barrier opening. (Hartz et al., 2012). Data includes mean±SEM (n=10 capillaries); arbitrary units (0-255). B) S100β ELISA (Millipore). Statistics: ***p<0.001 (ANOVA). […] With reference to FIGS. 4A and 4B, the effect of a combination of a LOX inhibitor and a COX inhibitor on seizure-mediated capillary leakage was tested. Rats were treated with zileuton (ZLT) and celecoxib (CEL) (5 mg/kg and 10 mg/kg; i.p., 7 injections). Capillaries were isolated 2 d after SE-induction with pilocarpine. Texas Red (TR) leakage from capillary lumens monitored by confocal microscopy (mannitol: positive control for barrier opening; Hartz et al., 2012). Data: mean±SEM (n=10 capillaries); arbitrary units (0-255).
# [2] = system: isolated rat brain capillaries; assay: Texas Red leakage assay, glutamate-mediated capillary leakage; format: cell-based; conditions: 100 μM glutamate with 100 μM LCF
# Experimental: With reference to FIGS. 1A-1C, the effect of dual LOX-COX inhibition on glutamate-mediated capillary leakage was tested. Isolated rat brain capillaries were exposed to 100 μM glutamate with or without 100 μM of the dual LOX/COX inhibitor, licofelone (LCF).
smiles,measurement,setting,value
CC1(C)Cc2c(-c3ccccc3)c(-c3ccc(Cl)cc3)c(CC(=O)O)n2C1 [licofelone],MMP activity,MMP,did not show increased activity
same,"capillary leakage as reflected by S100β levels in serum from SE rats, dose dependence",S100β; 5 mg/kg or 10 mg/kg LCF i.p.,inhibit capillary leakage in a dose-dependent manner
same,S100β levels in serum from SE rats,S100β; 10 mg/kg LCF i.p.,reduces S100β levels
same,MMP-2 protein levels (Western blot),MMP-2,did not show increased protein levels
same,MMP-9 protein levels (Western blot),MMP-9,did not show increased protein levels
same,capillary leakage in SE rats (Texas Red leakage),[1],prevents capillary leakage
same,glutamate-mediated capillary leakage (Texas Red leakage),[2],reduced glutamate-mediated capillary leakage
same,glutamate-mediated capillary leakage (Texas Red leakage),[2]; listed as LCF,glutamate-mediated barrier leakage reduction
